{
  "source": "paper PMC5429769",
  "about": "“Rational development of Stafib-2: a selective, nanomolar inhibitor of the transcription factor STAT5b” (Scientific Reports, 2017)",
  "assay_type_in_all_cases": "binding",
  "key": {"[1]": {"target": "T1, STAT5a SH2 domain (Homo sapiens, UniProt P42229)", "T1 sequence (P42229 1-794)": "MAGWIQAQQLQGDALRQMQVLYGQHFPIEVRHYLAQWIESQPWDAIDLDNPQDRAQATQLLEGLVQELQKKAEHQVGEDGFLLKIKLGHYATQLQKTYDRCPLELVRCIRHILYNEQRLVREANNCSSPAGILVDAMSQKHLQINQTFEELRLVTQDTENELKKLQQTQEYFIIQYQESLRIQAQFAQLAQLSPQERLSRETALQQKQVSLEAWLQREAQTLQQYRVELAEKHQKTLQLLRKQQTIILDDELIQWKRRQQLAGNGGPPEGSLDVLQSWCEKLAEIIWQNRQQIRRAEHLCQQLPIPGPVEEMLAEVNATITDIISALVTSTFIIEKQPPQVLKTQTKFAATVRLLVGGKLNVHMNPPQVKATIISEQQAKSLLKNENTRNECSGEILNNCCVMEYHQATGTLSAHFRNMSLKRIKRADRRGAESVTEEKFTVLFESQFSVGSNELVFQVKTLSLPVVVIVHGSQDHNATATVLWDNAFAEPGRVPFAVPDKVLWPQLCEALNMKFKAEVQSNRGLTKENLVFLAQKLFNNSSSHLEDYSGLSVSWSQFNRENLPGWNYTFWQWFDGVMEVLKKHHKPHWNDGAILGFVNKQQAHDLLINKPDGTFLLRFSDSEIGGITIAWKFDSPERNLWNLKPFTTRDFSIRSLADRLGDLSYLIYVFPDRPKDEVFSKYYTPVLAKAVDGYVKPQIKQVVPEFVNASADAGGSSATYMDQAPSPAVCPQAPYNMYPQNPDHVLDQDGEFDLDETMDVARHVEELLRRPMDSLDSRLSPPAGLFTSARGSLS", "assay": "Fluorescence polarization assay, STAT5a SH2 domain", "conditions": "mean ± s.d."}, "[2]": {"system": "STAT3", "assay": "Fluorescence polarization assay, STAT3", "conditions": "at 40 µM"}, "[3]": {"target": "T2, STAT4 (Homo sapiens, UniProt Q14765)", "T2 sequence (Q14765 1-748)": "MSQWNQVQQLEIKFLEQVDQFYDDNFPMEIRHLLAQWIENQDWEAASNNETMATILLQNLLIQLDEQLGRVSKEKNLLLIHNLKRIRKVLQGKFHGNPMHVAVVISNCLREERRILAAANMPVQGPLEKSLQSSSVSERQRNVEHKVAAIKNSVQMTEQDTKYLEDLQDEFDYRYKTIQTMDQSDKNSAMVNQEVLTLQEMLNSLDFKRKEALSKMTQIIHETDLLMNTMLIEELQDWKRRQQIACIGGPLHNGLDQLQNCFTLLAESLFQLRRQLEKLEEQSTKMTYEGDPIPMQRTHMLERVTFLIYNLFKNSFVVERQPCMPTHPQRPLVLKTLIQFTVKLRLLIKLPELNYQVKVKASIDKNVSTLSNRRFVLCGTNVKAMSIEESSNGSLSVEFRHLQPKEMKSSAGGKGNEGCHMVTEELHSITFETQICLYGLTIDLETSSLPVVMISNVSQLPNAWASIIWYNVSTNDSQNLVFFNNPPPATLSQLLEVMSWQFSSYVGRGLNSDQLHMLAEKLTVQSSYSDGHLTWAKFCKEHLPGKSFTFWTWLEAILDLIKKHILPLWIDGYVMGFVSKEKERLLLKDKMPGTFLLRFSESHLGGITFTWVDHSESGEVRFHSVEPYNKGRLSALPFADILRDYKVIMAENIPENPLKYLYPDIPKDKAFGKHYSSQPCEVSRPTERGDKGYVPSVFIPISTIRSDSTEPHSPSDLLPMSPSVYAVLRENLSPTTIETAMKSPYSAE", "assay": "Fluorescence polarization assay, STAT4"}, "[4]": {"target": "T3, wild-type STAT5b (Homo sapiens, UniProt P51692)", "T3 sequence (P51692 1-787)": "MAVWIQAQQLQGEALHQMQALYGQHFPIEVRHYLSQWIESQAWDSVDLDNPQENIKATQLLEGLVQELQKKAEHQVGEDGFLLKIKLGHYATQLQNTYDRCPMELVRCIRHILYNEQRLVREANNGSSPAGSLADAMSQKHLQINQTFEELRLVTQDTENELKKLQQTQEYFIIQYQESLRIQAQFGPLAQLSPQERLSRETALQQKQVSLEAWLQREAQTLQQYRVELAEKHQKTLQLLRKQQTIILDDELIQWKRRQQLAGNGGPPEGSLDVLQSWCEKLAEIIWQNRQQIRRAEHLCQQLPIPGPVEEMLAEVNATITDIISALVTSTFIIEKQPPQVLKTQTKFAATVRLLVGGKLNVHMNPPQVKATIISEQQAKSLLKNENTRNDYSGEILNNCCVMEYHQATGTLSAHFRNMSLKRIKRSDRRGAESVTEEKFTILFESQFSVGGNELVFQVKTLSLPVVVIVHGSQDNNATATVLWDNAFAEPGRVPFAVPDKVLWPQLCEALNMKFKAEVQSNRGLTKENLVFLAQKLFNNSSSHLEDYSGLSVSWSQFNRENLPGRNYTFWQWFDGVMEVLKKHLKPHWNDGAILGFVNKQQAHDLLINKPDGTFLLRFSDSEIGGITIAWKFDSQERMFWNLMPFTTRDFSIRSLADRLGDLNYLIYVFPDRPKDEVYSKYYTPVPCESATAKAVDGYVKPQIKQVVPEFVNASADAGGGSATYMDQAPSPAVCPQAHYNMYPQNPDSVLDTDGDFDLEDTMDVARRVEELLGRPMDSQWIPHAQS", "assay": "Isothermal titration calorimetry, wild-type STAT5b", "conditions": "ITC, 25 °C, n = 3"}},
  "data": [
    {"smiles": "O=C(COc1ccc(C(=O)Nc2ccc(Oc3ccccc3)cc2)cc1)NCc1ccc(OP(=O)(O)O)c(OP(=O)(O)O)c1", "note": "[compound 4, 4-((2-(4-((4-phenoxyphenyl)carbamoyl)phenoxy)acetamido)methyl)-1,2-phenylene bis(dihydrogen phosphate)]", "values": [
      {"measurement": "Ki", "setting": "[1]; converted from IC50 using the published equation, n = 3", "value": "1.3 ± 0.1", "unit": "µM"},
      {"measurement": "IC50", "setting": "[1]; fluorescence polarization, three independent experiments", "value": "2.7 ± 0.2", "unit": "µM"},
      {"measurement": "STAT3 maximum inhibition", "setting": "[2]", "value": "30 ± 3", "unit": "%"},
      {"measurement": "IC50", "setting": "[3]", "value": "9.1 ± 0.3", "unit": "µM"},
      {"measurement": "ΔH", "setting": "[4]", "value": "-4.1 ± 0.5", "unit": "kcal/mol"},
      {"measurement": "−TΔS", "setting": "[4]", "value": "-4.8 ± 0.6", "unit": "kcal/mol"}
    ]}
  ]
}
